Laboratory results published in PubChem BioAssay (NCI).
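Where inhibition never reached the appropriate level, the endpoint shown equals the highest concentration tested. Otherwise, values were interpolated linearly from a five-concentration, 48-hour dose response in 96-well plates. GI50 = concentration required for 50% inhibition of growth. TGI marks complete inhibition of growth.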

Assays:
Assay in all cases: NCI-60 cell line screen, 48 h
786-0 renal = system: 786-0 renal
A549 NSCLC = system: A549 NSCLC
COLO 205 colon = system: COLO 205 colon
DU-145 prostate = system: DU-145 prostate
HCT-116 colon = system: HCT-116 colon
HL-60(TB) leukemia = system: HL-60(TB) leukemia
K-562 leukemia = system: K-562 leukemia
KM12 colon = system: KM12 colon
MALME-3M melanoma = system: MALME-3M melanoma
MDA-MB-435 = system: MDA-MB-435
MOLT-4 leukemia = system: MOLT-4 leukemia
NCI-H226 lung = system: NCI-H226 lung
NCI-H522 lung = system: NCI-H522 lung
OVCAR-5 ovarian = system: OVCAR-5 ovarian
OVCAR-8 ovarian = system: OVCAR-8 ovarian
RXF 393 renal = system: RXF 393 renal
SK-MEL-2 melanoma = system: SK-MEL-2 melanoma
SK-MEL-5 melanoma = system: SK-MEL-5 melanoma
SK-OV-3 ovarian = system: SK-OV-3 ovarian
SW-620 colon = system: SW-620 colon
UACC-257 melanoma = system: UACC-257 melanoma
A498 renal = system: A498 renal
ACHN renal = system: ACHN renal
BT-549 breast = system: BT-549 breast
CAKI-1 renal = system: CAKI-1 renal
CCRF-CEM leukemia = system: CCRF-CEM leukemia
EKVX NSCLC = system: EKVX NSCLC
HCC-2998 colon = system: HCC-2998 colon
HCT-15 colon = system: HCT-15 colon
HOP-62 NSCLC = system: HOP-62 NSCLC
HOP-92 NSCLC = system: HOP-92 NSCLC
HS 578T breast = system: HS 578T breast
HT29 colon = system: HT29 colon
IGROV1 ovarian = system: IGROV1 ovarian
LOX IMVI melanoma = system: LOX IMVI melanoma
M14 melanoma = system: M14 melanoma
MCF7 breast = system: MCF7 breast
MDA-MB-231 breast = system: MDA-MB-231 breast
NCI-H23 lung = system: NCI-H23 lung
NCI-H460 lung = system: NCI-H460 lung
NCI/ADR-RES ovarian = system: NCI/ADR-RES ovarian
OVCAR-3 ovarian = system: OVCAR-3 ovarian
OVCAR-4 ovarian = system: OVCAR-4 ovarian
PC-3 prostate = system: PC-3 prostate
RPMI-8226 leukemia = system: RPMI-8226 leukemia
SF-268 CNS = system: SF-268 CNS
SF-295 CNS = system: SF-295 CNS
SF-539 CNS = system: SF-539 CNS
SK-MEL-28 melanoma = system: SK-MEL-28 melanoma
SN12C renal = system: SN12C renal
SNB-19 CNS = system: SNB-19 CNS
SR leukemia = system: SR leukemia
TK-10 renal = system: TK-10 renal
U251 CNS = system: U251 CNS
UACC-62 melanoma = system: UACC-62 melanoma
UO-31 renal = system: UO-31 renal
SNB-75 CNS = system: SNB-75 CNS

`CNc1ccc(C(=O)CC(O)CCC(C)C2OC(=O)CC(O)CC(=O)CC(O)CC(O)CC(O)CC(O)CC3(O)CC(O)C(C(=O)N4CCOCC4)C(CC(OC4OC(C)C(O)C(N)C4O)/C=C/C=C/C=C/C=C\C=C/C=C/C=C/C2C)O3)cc1` (configuration not stated) was tested, and the TGI (786-0 renal) was greater than 100 µM, the TGI (A549 NSCLC) was greater than 100 µM and the TGI (COLO 205 colon) was greater than 100 µM. For the same compound, the TGI (DU-145 prostate) was 3.31 µM, the TGI (HCT-116 colon) was greater than 100 µM and the TGI (HL-60(TB) leukemia) was greater than 100 µM. For the same compound, the TGI (K-562 leukemia) was greater than 100 µM, the TGI (KM12 colon) was 0.747 µM and the TGI (MALME-3M melanoma) was 0.4 µM. It also gave a TGI (MDA-MB-435) of 0.798 µM, a TGI (MOLT-4 leukemia) greater than 100 µM and a TGI (NCI-H226 lung) of 0.553 µM. The TGI (NCI-H522 lung) was 0.55 µM, the TGI (OVCAR-5 ovarian) was greater than 100 µM and the TGI (OVCAR-8 ovarian) was greater than 100 µM. The TGI (RXF 393 renal) was 0.637 µM, the TGI (SK-MEL-2 melanoma) was 8.55 µM and the TGI (SK-MEL-5 melanoma) was 0.462 µM. The TGI (SK-OV-3 ovarian) was greater than 100 µM, the TGI (SW-620 colon) was greater than 100 µM and the TGI (UACC-257 melanoma) was 0.384 µM.
For `COc1ccc(-c2c[nH]c(C(=O)O)c2-c2cc(OC)c(OC)c(OC)c2)cc1`, the GI50 (786-0 renal) was 6.63 µM, the TGI (786-0 renal) was greater than 100 µM and the GI50 (A498 renal) was 1.56 µM. The TGI (A498 renal) was 6.67 µM, the GI50 (A549 NSCLC) was 6.61 µM and the TGI (A549 NSCLC) was greater than 100 µM. It also gave a GI50 (ACHN renal) of 9.74 µM, a TGI (ACHN renal) greater than 100 µM and a GI50 (BT-549 breast) of 10.4 µM. The TGI (BT-549 breast) was greater than 100 µM, the GI50 (CAKI-1 renal) was 3.66 µM and the TGI (CAKI-1 renal) was greater than 100 µM. The GI50 (CCRF-CEM leukemia) was 4.08 µM, the TGI (CCRF-CEM leukemia) was greater than 100 µM and the GI50 (COLO 205 colon) was 3.31 µM. The TGI (COLO 205 colon) was 17 µM, the GI50 (DU-145 prostate) was 4.27 µM and the TGI (DU-145 prostate) was greater than 100 µM. It also gave a GI50 (EKVX NSCLC) of 5.86 µM, a TGI (EKVX NSCLC) greater than 100 µM and a GI50 (HCC-2998 colon) of 7.53 µM. It also gave a TGI (HCC-2998 colon) greater than 100 µM, a GI50 (HCT-116 colon) of 5.02 µM and a TGI (HCT-116 colon) greater than 100 µM. The GI50 (HCT-15 colon) was 3.66 µM, the TGI (HCT-15 colon) was greater than 100 µM and the GI50 (HL-60(TB) leukemia) was 3.06 µM. The TGI (HL-60(TB) leukemia) was 9.59 µM, the GI50 (HOP-62 NSCLC) was 5.87 µM and the TGI (HOP-62 NSCLC) was greater than 100 µM. For the same compound, the GI50 (HOP-92 NSCLC) was 5.68 µM, the TGI (HOP-92 NSCLC) was greater than 100 µM and the GI50 (HS 578T breast) was 3.42 µM. For the same compound, the TGI (HS 578T breast) was greater than 100 µM, the GI50 (HT29 colon) was 3.29 µM and the TGI (HT29 colon) was greater than 100 µM. It also gave a GI50 (IGROV1 ovarian) of 5.5 µM, a TGI (IGROV1 ovarian) greater than 100 µM and a GI50 (K-562 leukemia) of 3.08 µM. The TGI (K-562 leukemia) was greater than 100 µM, the GI50 (KM12 colon) was 4.59 µM and the TGI (KM12 colon) was greater than 100 µM. The GI50 (LOX IMVI melanoma) was 6.69 µM, the TGI (LOX IMVI melanoma) was greater than 100 µM and the GI50 (M14 melanoma) was 3.65 µM. For the same compound, the TGI (M14 melanoma) was greater than 100 µM, the GI50 (MALME-3M melanoma) was 4.37 µM and the TGI (MALME-3M melanoma) was greater than 100 µM. It also gave a GI50 (MCF7 breast) of 3.89 µM, a TGI (MCF7 breast) greater than 100 µM and a GI50 (MDA-MB-231 breast) of 12.4 µM. It also gave a TGI (MDA-MB-231 breast) greater than 100 µM, a GI50 (MDA-MB-435) of 1.6 µM and a TGI (MDA-MB-435) of 4.19 µM. It also gave a GI50 (MOLT-4 leukemia) of 4.95 µM, a TGI (MOLT-4 leukemia) greater than 100 µM and a GI50 (NCI-H226 lung) of 4.59 µM. For the same compound, the TGI (NCI-H226 lung) was greater than 100 µM, the GI50 (NCI-H23 lung) was 7.77 µM and the TGI (NCI-H23 lung) was greater than 100 µM. For the same compound, the GI50 (NCI-H460 lung) was 3.8 µM, the TGI (NCI-H460 lung) was greater than 100 µM and the GI50 (NCI-H522 lung) was 2.75 µM. The TGI (NCI-H522 lung) was greater than 100 µM, the GI50 (NCI/ADR-RES ovarian) was 3.8 µM and the TGI (NCI/ADR-RES ovarian) was greater than 100 µM. The GI50 (OVCAR-3 ovarian) was 2.74 µM, the TGI (OVCAR-3 ovarian) was 8.05 µM and the GI50 (OVCAR-4 ovarian) was 88.8 µM. It also gave a TGI (OVCAR-4 ovarian) greater than 100 µM, a GI50 (OVCAR-5 ovarian) of 9.98 µM and a TGI (OVCAR-5 ovarian) greater than 100 µM. For the same compound, the GI50 (OVCAR-8 ovarian) was 5.44 µM, the TGI (OVCAR-8 ovarian) was greater than 100 µM and the GI50 (PC-3 prostate) was 4.46 µM. It also gave a TGI (PC-3 prostate) greater than 100 µM, a GI50 (RPMI-8226 leukemia) of 4.24 µM and a TGI (RPMI-8226 leukemia) greater than 100 µM. The GI50 (RXF 393 renal) was 2.33 µM, the TGI (RXF 393 renal) was 6.77 µM and the GI50 (SF-268 CNS) was greater than 100 µM. It also gave a TGI (SF-268 CNS) greater than 100 µM, a GI50 (SF-295 CNS) of 4.19 µM and a TGI (SF-295 CNS) greater than 100 µM. It also gave a GI50 (SF-539 CNS) of 3.08 µM, a TGI (SF-539 CNS) of 15.6 µM and a GI50 (SK-MEL-2 melanoma) of 5.45 µM. The TGI (SK-MEL-2 melanoma) was greater than 100 µM, the GI50 (SK-MEL-28 melanoma) was greater than 100 µM and the TGI (SK-MEL-28 melanoma) was greater than 100 µM. The GI50 (SK-MEL-5 melanoma) was 3.5 µM, the TGI (SK-MEL-5 melanoma) was greater than 100 µM and the GI50 (SK-OV-3 ovarian) was 5.82 µM. It also gave a TGI (SK-OV-3 ovarian) greater than 100 µM, a GI50 (SN12C renal) of 7.94 µM and a TGI (SN12C renal) greater than 100 µM. The GI50 (SNB-19 CNS) was 7.24 µM, the TGI (SNB-19 CNS) was greater than 100 µM and the GI50 (SR leukemia) was 2.92 µM. For the same compound, the TGI (SR leukemia) was greater than 100 µM, the GI50 (SW-620 colon) was 3.94 µM and the TGI (SW-620 colon) was greater than 100 µM. For the same compound, the GI50 (TK-10 renal) was greater than 100 µM, the TGI (TK-10 renal) was greater than 100 µM and the GI50 (U251 CNS) was 4.99 µM. It also gave a TGI (U251 CNS) greater than 100 µM, a GI50 (UACC-257 melanoma) greater than 100 µM and a TGI (UACC-257 melanoma) greater than 100 µM. It also gave a GI50 (UACC-62 melanoma) of 4.13 µM, a TGI (UACC-62 melanoma) greater than 100 µM and a GI50 (UO-31 renal) of 5.02 µM. The TGI (UO-31 renal) was greater than 100 µM.
In the case of `Cn1cc(-c2nc(-c3c[nH]c4ccncc34)cs2)c2cc(Br)ccc21`, the GI50 (DU-145 prostate) is reported as 1.82 µM, the TGI (DU-145 prostate) is reported as 3.28 µM and the GI50 (MDA-MB-231 breast) is reported as 1.41 µM. For the same compound, the TGI (MDA-MB-231 breast) was 2.84 µM, the GI50 (OVCAR-5 ovarian) was 1.81 µM and the TGI (OVCAR-5 ovarian) was 3.27 µM. It also gave a GI50 (SK-MEL-2 melanoma) of 2 µM, a TGI (SK-MEL-2 melanoma) of 3.62 µM and a GI50 (SK-MEL-5 melanoma) of 1.6 µM. The TGI (SK-MEL-5 melanoma) was 2.95 µM, the GI50 (SNB-75 CNS) was 1.23 µM and the TGI (SNB-75 CNS) was 2.54 µM. The GI50 (UACC-257 melanoma) was 1.99 µM and the TGI (UACC-257 melanoma) was 3.52 µM.
